Several values for one entry are separate records, joined by “and”; a condition that tells them apart may be missing. Identical values can stand only once.
Test system: 997537-175-T-J1-PDC complex spheroid viability
Experiment: Anticancer human tumor 997537-175-T-J1-PDC patient-derived colon adenocarcinoma cell line growth inhibition [GQUAD]
Details: for viability, T/C: stronger effect = lower value
Source text: DNA G-quadruplex Stabilizer Agents in Combinations in Complex Spheroids
A high-throughput screen of multi-cell type tumor spheroids was designed to identify active combinations of DNA G-quadruplex stabilizer agents and targeted small molecules. Complex spheroids include a stromal component modeled by human endothelial cells (HUVEC) and fibroblasts modeled by human mesenchymal stem cells (MSCs). The concentration ranges selected for each drug and investigational agent were based upon clinically achievable concentrations if the clinical Cmax of the agent was known.
Compounds. The drugs and investigational agents: pidnarulex (CX-5461; NSC782164), APTO-253 (NSC789042), BRACO-19 (NSC847499), peposertib (NSC802822), ceralasertib (NSC780249), elimusertib (NSC800525), camonsertib (NSC841442), AZD-1390 (NSC803789), olaparib (NSC753686), talazoparib (NSC767125), ART-558 (NSC835418), sotorasib (NSC818433), MRTX-1133 (NSC836407), SN-38 (NSC673596), topotecan (NSC609699), etoposide (NSC141540), doxorubicin (NSC123127), gemcitabine (NSC613327), 5-fluorouracil (NSC19893), paclitaxel (NSC125973), vemurafenib (NSC761431), panobinostat (NSC761190), R-306465 (JNJ-16241199; NSC773264), adavosertib (NSC754352), TP-3654 (NSC805149), carboplatin (NSC241240), KSQ-4279 (NSC840948), and staurosporine (NSC755774) were obtained from the National Cancer Institute (NCI) Developmental Therapeutics Program Chemical Repository (34). The FDA-approved anticancer drug set is available from the NCI Developmental Therapeutics Program. […] The stock solutions were prepared in dimethyl sulfoxide (DMSO, Sigma-Aldrich, St. Louis, MO, cat. D2650) at 800-fold the tested concentration and stored at -70 degrees C prior to their use. All drugs and investigational agents were tested over a range starting from a high concentration at or near the clinical Cmax and decreasing in half-log increments. If the clinical Cmax for an agent had not been determined, the highest concentration tested was 10 microM.
2.3 Cell Culture. All cells were maintained in an incubator at 37 degrees C and 5% CO2 with 95% humidity. The PDC lines were cultured according to standard operating procedures established by the NCI PDMR. All PDCs were thawed and cultured in Matrigel-coated flasks prepared with a working solution of 1X Ham's F-12 nutrient mix, without supplementation (Invitrogen, cat. 11765054), 100 U/mL penicillin-streptomycin (Invitrogen, cat. 15140122), and 2.5% Matrigel (Corning Inc., cat. 354248) for the first three passages. The 857933-349-R-J2-PDC line was cultured in 6C/Colon 1B media, which includes advanced DMEM/F-12 (Thermo Fisher Scientific, cat. 12634028), 10 mM HEPES (Thermo Fisher Scientific, cat. 15630080), 1X GlutaMAX supplement (Thermo Fisher Scientific, cat. 35050061), 0.1 mg/mL primocin (InvivoGen, cat. ant-pm-2), 10% defined fetal bovine serum, heat inactivated (HyClone Laboratories Inc., cat. SH30070.03HI), 50% L-WRN conditioned media (ATCC, cat. CRL-3276), 1.25 mM N-Acetyl-L-cysteine (Sigma-Aldrich, cat. A9165), 10 mM nicotinamide (Sigma-Aldrich, cat. N0636), 1X B-27 supplement (Thermo Fisher Scientific, cat. 17504044), 1X N-2 supplement (Thermo Fisher Scientific, cat. 17502048), 10 microM Y-27632 dihydrochloride (Tocris Bioscience, cat. 1254), and 50 ng/mL human EGF recombinant protein (Thermo Fisher Scientific, cat. PHG0311). The 485176-168-R4-J1-PDC line was cultured in Panc media, which includes all 6C/Colon 1B media components plus 100 ng/mL human FGF-10 (Thermo Fisher Scientific, cat. 100-26), 500 nM SB-431542 (Selleckchem, cat. S1067), and gastrin (Tocris, cat. 3006).
[…]
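Further: spheroids exposed to the agents for 7 days.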
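Wherever viability, T/C is given: 100% = DMSO vehicle control viability.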

For `COc1cc(C2c3cc4c(cc3C(OC3OC5COC(C)OC5C(O)C3O)C3COC(=O)C23)OCO4)cc(OC)c1O` (centres undefined) + Cc1[nH]c2ccc(F)cc2c1-c1nc2c3cccnc3c3ncccc3c2[nH]1, the IC50 (curve of first compound, second compound 0.0316 µM) was > 10 µM, the IC50 (curve of first compound, second compound 0.1 µM) was > 10 µM and the IC50 (curve of first compound, second compound 0.316 µM) was > 10 µM. For the same compound, the IC50 (curve of first compound, second compound 1 µM) was > 10 µM, the IC50 (curve of first compound, second compound 3.16 µM) was > 10 µM and the IC50 (curve of first compound, second compound 10 µM) was > 10 µM. It also gave a viability, T/C (second compound 0.0316 µM, first compound 0.0316 µM) of 105%, a viability, T/C (second compound 0.0316 µM, first compound 0.1 µM) of 90% and a viability, T/C (second compound 0.0316 µM, first compound 0.316 µM) of 102%. It also gave a viability, T/C (second compound 0.0316 µM, first compound 1 µM) of 64.1%, a viability, T/C (second compound 0.0316 µM, first compound 3.16 µM) of 109% and a viability, T/C (second compound 0.0316 µM, first compound 10 µM) of 53.6%. It also gave a viability, T/C (second compound 0.1 µM, first compound 0.0316 µM) of 99%, a viability, T/C (second compound 0.1 µM, first compound 0.1 µM) of 75.9% and a viability, T/C (second compound 0.1 µM, first compound 0.316 µM) of 89%. For the same compound, the viability, T/C (second compound 0.1 µM, first compound 1 µM) was 88.3%, the viability, T/C (second compound 0.1 µM, first compound 3.16 µM) was 90.8% and the viability, T/C (second compound 0.1 µM, first compound 10 µM) was 75.3%. For the same compound, the viability, T/C (second compound 0.316 µM, first compound 0.0316 µM) was 96.4%, the viability, T/C (second compound 0.316 µM, first compound 0.1 µM) was 64.1% and the viability, T/C (second compound 0.316 µM, first compound 0.316 µM) was 91.1%. It also gave a viability, T/C (second compound 0.316 µM, first compound 1 µM) of 84.5%, a viability, T/C (second compound 0.316 µM, first compound 3.16 µM) of 91% and a viability, T/C (second compound 0.316 µM, first compound 10 µM) of 76.8%. The viability, T/C (second compound 1 µM, first compound 0.0316 µM) was 89.8%, the viability, T/C (second compound 1 µM, first compound 0.1 µM) was 77.2% and the viability, T/C (second compound 1 µM, first compound 0.316 µM) was 88.5%. It also gave a viability, T/C (second compound 1 µM, first compound 1 µM) of 84.8%, a viability, T/C (second compound 1 µM, first compound 3.16 µM) of 67.7% and a viability, T/C (second compound 1 µM, first compound 10 µM) of 53.1%. It also gave a viability, T/C (second compound 3.16 µM, first compound 0.0316 µM) of 88.5%, a viability, T/C (second compound 3.16 µM, first compound 0.1 µM) of 71% and a viability, T/C (second compound 3.16 µM, first compound 0.316 µM) of 85.8%. The viability, T/C (second compound 3.16 µM, first compound 1 µM) was 75.7%, the viability, T/C (second compound 3.16 µM, first compound 3.16 µM) was 98.6% and the viability, T/C (second compound 3.16 µM, first compound 10 µM) was 72.4%. For the same compound, the viability, T/C (second compound 10 µM, first compound 0.0316 µM) was 84.8%, the viability, T/C (second compound 10 µM, first compound 0.1 µM) was 92.7% and the viability, T/C (second compound 10 µM, first compound 0.316 µM) was 78.6%. It also gave a viability, T/C (second compound 10 µM, first compound 1 µM) of 81%, a viability, T/C (second compound 10 µM, first compound 3.16 µM) of 86% and a viability, T/C (second compound 10 µM, first compound 10 µM) of 65.2%.

For `CC(C)n1c(=O)n(C)c2cnc3cc(F)c(-c4ccc(OCCCN5CCCCC5)nc4)cc3c21`, the viability, T/C (compound 0.0316 µM) was 97.6% and 103% and 97%, the viability, T/C (compound 0.1 µM) was 90.3% and 99.9% and 82.4% and the viability, T/C (compound 0.316 µM) was 110% and 106% and 99.8%. The viability, T/C (compound 1 µM) was 107% and 99.2% and 103%, the viability, T/C (compound 3.16 µM) was 83.5% and 78.7% and 101% and the viability, T/C (compound 10 µM) was 83.4% and 93.4% and 92%. For the same compound, the IC50 (curve of compound) was > 10 µM.

Reference: PubChem BioAssay AID2060487 (Molecular Pharmacology Branch, DTP, NCI, 2025)
